Test results reported in ChEMBL document CHEMBL4002636, “Alkaloids from the mangrove endophytic fungus Diaporthe phaseolorum SKS019” (Bioorg Med Chem Lett, 2017).
The source made the active and inactive calls. The rule behind the calls is not given here.

How the values were obtained:
[1] = system: NCI-H460; test: Cytotoxicity against human NCI-H460 cells assessed as growth inhibition after 48 hrs by MTT assay; format: functional, cell-based; details: NCI-H460, 48 h
[2] = system: MDA-MB-435; test: Cytotoxicity against human MDA-MB-435 cells assessed as growth inhibition after 48 hrs by MTT assay; format: functional, cell-based; details: MDA-MB-435, 48 h
[3] = system: HCT-116; test: Cytotoxicity against human HCT116 cells assessed as growth inhibition at 50 uM after 48 hrs by MTT assay; format: functional, cell-based
[4] = system: HepG2; test: Cytotoxicity against human HepG2 cells assessed as growth inhibition after 48 hrs by MTT assay; format: functional, cell-based; details: HepG2, 48 h
[5] = system: HepG2; test: Cytotoxicity against human HepG2 cells assessed as growth inhibition at 50 uM after 48 hrs by MTT assay; format: functional, cell-based
[6] = system: HCT-116; test: Cytotoxicity against human HCT116 cells assessed as growth inhibition after 48 hrs by MTT assay; format: functional, cell-based; details: HCT-116, 48 h
[7] = system: NCI-H460; test: Cytotoxicity against human NCI-H460 cells assessed as growth inhibition at 50 uM after 48 hrs by MTT assay; format: functional, cell-based
[8] = system: MCF-10A; test: Cytotoxicity against human MCF10A cells assessed as growth inhibition after 48 hrs by MTT assay; format: cell-based
[9] = system: MDA-MB-435; test: Cytotoxicity against human MDA-MB-435 cells assessed as growth inhibition at 50 uM after 48 hrs by MTT assay; format: functional, cell-based

`O=C1c2cc(O)cc(O)c2CN1CCO` was tested, and the IC50 [1] was greater than 50 µM, the IC50 [2] was greater than 50 µM and the “growth inhibition (GI)” value [3] was “inactive”. For the same compound, the IC50 [4] was greater than 50 µM, the “growth inhibition (GI)” value [5] was “inactive” and the IC50 [6] was greater than 50 µM. The “growth inhibition (GI)” value [7] was “inactive”, the IC50 [8] was greater than 50 µM and the “growth inhibition (GI)” value [9] was “inactive”.

`COC(=O)c1cc(OC)cc2oc3cc(C)ncc3c(=O)c12` was tested, and the IC50 [1] was greater than 50 µM, the IC50 [2] was greater than 50 µM and the “growth inhibition (GI)” value [3] was “inactive”. The IC50 [4] was greater than 50 µM, the “growth inhibition (GI)” value [5] was “inactive” and the IC50 [6] was greater than 50 µM. For the same compound, the “growth inhibition (GI)” value [7] was “inactive”, the IC50 [8] was greater than 50 µM and the “growth inhibition (GI)” value [9] was “inactive”.

`COc1cc(O)c2c(c1)C(=O)c1cc(C)ncc1C2=O` was tested, and the IC50 [1] was 6.57 µM, the IC50 [2] was 5.32 µM and the IC50 [4] was greater than 50 µM. For the same compound, the IC50 [6] was 34.8 µM and the IC50 [8] was 9.31 µM.

With `COC(=O)c1cc(OC)c(OC)c2oc3cc(C)ncc3c(=O)c12` the IC50 [1] was greater than 50 µM, the IC50 [2] was greater than 50 µM and the “growth inhibition (GI)” value [3] was “inactive”. The IC50 [4] was greater than 50 µM, the “growth inhibition (GI)” value [5] was “inactive” and the IC50 [6] was greater than 50 µM. The “growth inhibition (GI)” value [7] was “inactive”, the IC50 [8] was greater than 50 µM and the “growth inhibition (GI)” value [9] was “inactive”.

`COC(=O)CCCCN1Cc2c(O)cc(O)cc2C1=O` was tested, and the IC50 [1] was greater than 50 µM, the IC50 [2] was greater than 50 µM and the “growth inhibition (GI)” value [3] was “inactive”. The IC50 [4] was greater than 50 µM, the “growth inhibition (GI)” value [5] was “inactive” and the IC50 [6] was greater than 50 µM. The “growth inhibition (GI)” value [7] was “inactive”, the IC50 [8] was greater than 50 µM and the “growth inhibition (GI)” value [9] was “inactive”.

`COC(=O)c1cc(OC)c(OC(C)=O)c2oc3cc(C)ncc3c(=O)c12` was tested, and the IC50 [1] was greater than 50 µM, the IC50 [2] was greater than 50 µM and the “growth inhibition (GI)” value [3] was “inactive”. The IC50 [4] was greater than 50 µM, the “growth inhibition (GI)” value [5] was “inactive” and the IC50 [6] was greater than 50 µM. The “growth inhibition (GI)” value [7] was “inactive”, the IC50 [8] was greater than 50 µM and the “growth inhibition (GI)” value [9] was “inactive”.

`COc1cccc2c1C(=O)c1c(O)c3c(c(O)c1C2=O)C[C@@](O)(C(=O)CO)C[C@@H]3O[C@H]1C[C@H](N)[C@@H](O)[C@H](C)O1` [EPIRUBICIN] was tested, and the IC50 [1] was 0.12 µM, the IC50 [2] was 0.26 µM and the IC50 [4] was 0.32 µM. The IC50 [6] was 0.37 µM and the IC50 [8] was 0.13 µM.

For `COC(=O)c1cc(O)cc2oc3cc(CO)ncc3c(=O)c12`, the IC50 [1] was greater than 50 µM, the IC50 [2] was greater than 50 µM and the “growth inhibition (GI)” value [3] was “inactive”. The IC50 [4] was greater than 50 µM, the “growth inhibition (GI)” value [5] was “inactive” and the IC50 [6] was greater than 50 µM. For the same compound, the “growth inhibition (GI)” value [7] was “inactive”, the IC50 [8] was greater than 50 µM and the “growth inhibition (GI)” value [9] was “inactive”.

With `O=C(O)CCCCN1Cc2c(O)cc(O)cc2C1=O` the IC50 [1] was greater than 50 µM, the IC50 [2] was greater than 50 µM and the “growth inhibition (GI)” value [3] was “inactive”. For the same compound, the IC50 [4] was greater than 50 µM, the “growth inhibition (GI)” value [5] was “inactive” and the IC50 [6] was greater than 50 µM. For the same compound, the “growth inhibition (GI)” value [7] was “inactive”, the IC50 [8] was greater than 50 µM and the “growth inhibition (GI)” value [9] was “inactive”.
